MIC data for 13 compounds are collected here from US20220177508A1, “C10-Cyclic Substituted 13-Membered Macrolides and Uses Thereof” (Zikani Therapeutics, Inc., priority 2018, published 2022).

Values after ≈ are worked out from the molar mass of the structure shown.

What all share (assay type): cell-based
Assay [1] concerns S. aureus MP-12. In words: Broth dilution MIC determination (CLSI), S. aureus MP-12. To be noted: Staphylococcus aureus, MP12; strain MP-12, broth dilution.
The subject of assay [2] is E. coli MP-4. The assay is described as follows: Broth dilution MIC determination (CLSI), E. coli MP-4. To be noted: Escherichia coli, MP4; strain MP-4, broth dilution; read-out: MIC E. coli MP-4.
In assay [3] the test system is K. pneumoniae MP-546. The assay is described as follows: Broth dilution MIC determination (CLSI), K. pneumoniae MP-546. To be noted: Klebsiella pneumoniae, MP546; strain MP-546, broth dilution.
Assay [4] has as its system P. aeruginosa MP-3. The assay is described as follows: Broth dilution MIC determination (CLSI), P. aeruginosa MP-3. To be noted: Pseudomonas aeruginosa, MP3; strain MP-3, broth dilution.
Assay [5] concerns A. baumannii MP-15. The assay is described as follows: Broth dilution MIC determination (CLSI), A. baumannii MP-15. To be noted: Acinetobacter baumannii, MP15; strain MP-15, broth dilution; read-out: MIC A. baumanii MP-15.

For the compound `CO[C@]1(C)C[C@@H](C)CN(C)[C@H]([C@@H]2CCCN(C)C2)COC(=O)C(C)(C)C(=O)[C@H](C)[C@H]1O[C@@H]1O[C@H](C)C[C@H](N(C)C)[C@H]1O` [Compound 113, (3R,6R,8R,9R,10R)-9-(((2S,3R,4S,6R)-4-(dimethylamino)-3-hydroxy-6-methyltetrahydro-2H-pyran-2-yl)oxy)-8-methoxy-4,6,8,10,12,12-hexamethyl-3-((R)-1-methylpiperidin-3-yl)-1-oxa-4-azacyclotridecane-11,13-dione], the MIC in assay [1] is greater than 32 µg/mL; in assay [2] it was 4 to 32 µg/mL (≈ 6.69 to 53.5 µM); in assay [3] it was greater than 32 µg/mL; in assay [4], greater than 32 µg/mL; in assay [5], greater than 32 µg/mL.

In the case of `CO[C@]1(C)C[C@@H](C)CN(C)[C@@H](C2CCN(C(C)C)CC2)COC(=O)C(C)(C)C(=O)[C@H](C)[C@H]1O[C@@H]1O[C@H](C)C[C@H](N(C)C)[C@H]1O` [Compound 116, (3S,6R,8R,9R,10R)-9-(((2S,3R,4S,6R)-4-(dimethylamino)-3-hydroxy-6-methyltetrahydro-2H-pyran-2-yl)oxy)-3-(1-isopropylpiperidin-4-yl)-8-methoxy-4,6,8,10,12,12-hexamethyl-1-oxa-4-azacyclotridecane-11,13-dione], the MIC was 4 to 32 µg/mL (≈ 6.39 to 51.1 µM) in assay [1]; less than 4 µg/mL in assay [2]; less than 4 µg/mL in assay [3]; greater than 32 µg/mL in assay [4]; greater than 32 µg/mL in assay [5].

Take `CCN1CCC[C@@H]([C@@H]2COC(=O)C(C)(C)C(=O)[C@H](C)[C@@H](O[C@@H]3O[C@H](C)C[C@H](N(C)C)[C@H]3O)[C@](C)(OC)C[C@@H](C)CN2C)C1` [Compound 117, (3R,6R,8R,9R,10R)-9-(((2S,3R,4S,6R)-4-(dimethylamino)-3-hydroxy-6-methyltetrahydro-2H-pyran-2-yl)oxy)-3-((R)-1-ethylpiperidin-3-yl)-8-methoxy-4,6,8,10,12,12-hexamethyl-1-oxa-4-azacyclotridecane-11,13-dione]: the MIC in assay [1] is greater than 32 µg/mL; in assay [2], 4 to 32 µg/mL (≈ 6.54 to 52.3 µM); in assay [3] it was 4 to 32 µg/mL (≈ 6.54 to 52.3 µM); in assay [4] it was greater than 32 µg/mL; in assay [5], greater than 32 µg/mL.

In the case of `CO[C@]1(C)C[C@@H](C)CN(C(=O)OCc2ccccc2)[C@H](C2CCN(C(C)C)CC2)COC(=O)C(C)(C)C(=O)[C@H](C)[C@H]1O[C@@H]1O[C@H](C)C[C@H](N(C)C)[C@H]1O` [Compound 118, Benzyl (3R,6R,8R,9R,10R)-9-(((2S,3R,4S,6R)-4-(dimethylamino)-3-hydroxy-6-methyltetrahydro-2H-pyran-2-yl)oxy)-3-(1-isopropylpiperidin-4-yl)-8-methoxy-6,8,10,12,12-pentamethyl-11,13-dioxo-1-oxa-4-azacyclotridecane-4-carboxylate], the MIC in assay [1], in assay [2], in assay [3], in assay [4] and in assay [5] was greater than 32 µg/mL each time.

In the case of `CO[C@]1(C)C[C@@H](C)CN(C)[C@H](C2CCN(CC(C)C)CC2)COC(=O)C(C)(C)C(=O)[C@H](C)[C@H]1O[C@@H]1O[C@H](C)C[C@H](N(C)C)[C@H]1O` [Compound 121, (3R,6R,8R,9R,10R)-9-(((2S,3R,4S,6R)-4-(dimethylamino)-3-hydroxy-6-methyltetrahydro-2H-pyran-2-yl)oxy)-3-(1-isobutylpiperidin-4-yl)-8-methoxy-4,6,8,10,12,12-hexamethyl-1-oxa-4-azacyclotridecane-11,13-dione], the MIC in assay [1] is 4 to 32 µg/mL (≈ 6.25 to 50 µM); in assay [2] it was less than 4 µg/mL; in assay [3] it was less than 4 µg/mL; in assay [4], greater than 32 µg/mL; in assay [5], greater than 32 µg/mL.

Take `CO[C@]1(C)C[C@@H](C)CN(C)[C@H]([C@@H]2CCN(CC(C)C)C2)COC(=O)C(C)(C)C(=O)[C@H](C)[C@H]1O[C@@H]1O[C@H](C)C[C@H](N(C)C)[C@H]1O` [Compound 123, (3R,6R,8R,9R,10R)-9-(((2S,3R,4S,6R)-4-(dimethylamino)-3-hydroxy-6-methyltetrahydro-2H-pyran-2-yl)oxy)-3-((R)-1-isobutylpyrrolidin-3-yl)-8-methoxy-4,6,8,10,12,12-hexamethyl-1-oxa-4-azacyclotridecane-11,13-dione]: the MIC in assay [1] was 4 to 32 µg/mL (≈ 6.39 to 51.1 µM); in assay [2] it was less than 4 µg/mL; in assay [3], 4 to 32 µg/mL (≈ 6.39 to 51.1 µM); in assay [4], greater than 32 µg/mL; in assay [5] it was greater than 32 µg/mL.

For `CO[C@]1(C)C[C@@H](C)CN(C)[C@H](C2CC3CCC(C2)N3C)COC(=O)C(C)(C)C(=O)[C@H](C)[C@H]1O[C@@H]1O[C@H](C)C[C@H](N(C)C)[C@H]1O` (stereo partly drawn) [Compound 129, (3R,6R,8R,9R,10R)-9-(((2S,3R,4S,6R)-4-(dimethylamino)-3-hydroxy-6-methyltetrahydro-2H-pyran-2-yl)oxy)-8-methoxy-4,6,8,10,12,12-hexamethyl-3-(8-methyl-8-azabicyclo[3.2.1]octan-3-yl)-1-oxa-4-azacyclotridecane-11,13-dione], the MIC is greater than 32 µg/mL in assay [1]; less than 4 µg/mL in assay [2]; 4 to 32 µg/mL (≈ 6.41 to 51.3 µM) in assay [3]; greater than 32 µg/mL in assay [4]; greater than 32 µg/mL in assay [5].

`CO[C@]1(C)C[C@@H](C)CN(C)[C@H](C2CCN(C)CC2)[C@H](C)OC(=O)C(C)(C)C(=O)[C@H](C)[C@H]1O[C@@H]1O[C@H](C)C[C@H](N(C)C)[C@H]1O` [Compound 130, (2S,3R,6R,8R,9R,10R)-9-(((2S,3R,4S,6R)-4-(dimethylamino)-3-hydroxy-6-methyltetrahydro-2H-pyran-2-yl)oxy)-8-methoxy-2,4,6,8,10,12,12-heptamethyl-3-(1-methylpiperidin-4-yl)-1-oxa-4-azacyclotridecane-11,13-dione]: the MIC in assay [1] is greater than 32 µg/mL; in assay [2] it was 4 to 32 µg/mL (≈ 6.54 to 52.3 µM); in assay [3], greater than 32 µg/mL; in assay [4], greater than 32 µg/mL; in assay [5], greater than 32 µg/mL.

With `CO[C@]1(C)C[C@@H](C)CN(C)[C@H](c2ccc(B(O)O)cc2)COC(=O)C(C)(C)C(=O)[C@H](C)[C@H]1O[C@@H]1O[C@H](C)C[C@H](N(C)C)[C@H]1O` [Compound 133, (4-((3R,6R,8R,9R,10R)-9-(((2S,3R,4S,6R)-4-(Dimethylamino)-3-hydroxy-6-methyltetrahydro-2H-pyran-2-yl)oxy)-8-methoxy-4,6,8,10,12,12-hexamethyl-11,13-dioxo-1-oxa-4-azacyclotridecan-3-yl)phenyl)boronic acid], the MIC in assay [1] is greater than 32 µg/mL; in assay [2], 4 to 32 µg/mL (≈ 6.45 to 51.6 µM); in assay [3] it was greater than 32 µg/mL; in assay [4] it was greater than 32 µg/mL; in assay [5], greater than 32 µg/mL.

With `CO[C@]1(C)C[C@@H](C)CN(C)[C@H](C2CNC2)COC(=O)C(C)(C)C(=O)[C@H](C)[C@H]1O[C@@H]1O[C@H](C)C[C@H](N(C)C)[C@H]1O` [Compound 134, (3R,6R,8R,9R,10R)-3-(azetidin-3-yl)-9-(((2S,3R,4S,6R)-4-(dimethylamino)-3-hydroxy-6-methyltetrahydro-2H-pyran-2-yl)oxy)-8-methoxy-4,6,8,10,12,12-hexamethyl-1-oxa-4-azacyclotridecane-11,13-dione], the MIC in assay [1] was greater than 32 µg/mL; in assay [2] it was less than 4 µg/mL; in assay [3] it was 4 to 32 µg/mL (≈ 7.2 to 57.6 µM); in assay [4], greater than 32 µg/mL; in assay [5], greater than 32 µg/mL.

As to `CO[C@]1(C)C[C@@H](C)CN(C)[C@@H]([C@H]2CC[C@H](N(C)C)CC2)COC(=O)C(C)(C)C(=O)[C@H](C)[C@H]1O[C@@H]1O[C@H](C)C[C@H](N(C)C)[C@H]1O` [Compound 137, (3S,6R,8R,9R,10R)-9-(((2S,3R,4S,6R)-4-(dimethylamino)-3-hydroxy-6-methyltetrahydro-2H-pyran-2-yl)oxy)-3-((1r,4S)-4-(dimethylamino)cyclohexyl)-8-methoxy-4,6,8,10,12,12-hexamethyl-1-oxa-4-azacyclotridecane-11,13-dione], the MIC in assay [1] is greater than 32 µg/mL; in assay [2] it was 4 to 32 µg/mL (≈ 6.39 to 51.1 µM); in assay [3], 4 to 32 µg/mL (≈ 6.39 to 51.1 µM); in assay [4], greater than 32 µg/mL; in assay [5] it was greater than 32 µg/mL.

Regarding `CO[C@]1(C)C[C@@H](C)CN(C)[C@@H]([C@H]2CCN(C(C)=O)C2)COC(=O)C(C)(C)C(=O)[C@H](C)[C@H]1O[C@@H]1O[C@H](C)C[C@H](N(C)C)[C@H]1O` [Compound 140, (3S,6R,8R,9R,10R)-3-((S)-1-acetylpyrrolidin-3-yl)-9-(((2S,3R,4S,6R)-4-(dimethylamino)-3-hydroxy-6-methyltetrahydro-2H-pyran-2-yl)oxy)-8-methoxy-4,6,8,10,12,12-hexamethyl-1-oxa-4-azacyclotridecane-11,13-dione], the MIC in assay [1] was greater than 32 µg/mL; in assay [2], 4 to 32 µg/mL (≈ 6.54 to 52.3 µM); in assay [3] it was greater than 32 µg/mL; in assay [4] it was greater than 32 µg/mL; in assay [5] it was greater than 32 µg/mL.

Turning to `CO[C@]1(C)C[C@@H](C)CN(C)[C@H](C2CCN(S(C)(=O)=O)CC2)COC(=O)C(C)(C)C(=O)[C@H](C)[C@H]1O[C@@H]1O[C@H](C)C[C@H](N(C)C)[C@H]1O` [Compound 142, (3R,6R,8R,9R,10R)-9-(((2S,3R,4S,6R)-4-(dimethylamino)-3-hydroxy-6-methyltetrahydro-2H-pyran-2-yl)oxy)-8-methoxy-4,6,8,10,12,12-hexamethyl-3-(1-(methylsulfonyl)piperidin-4-yl)-1-oxa-4-azacyclotridecane-11,13-dione], the MIC in assay [1] was 4 to 32 µg/mL (≈ 6.04 to 48.3 µM); in assay [2] it was 4 to 32 µg/mL (≈ 6.04 to 48.3 µM); in assay [3], 4 to 32 µg/mL (≈ 6.04 to 48.3 µM); in assay [4], greater than 32 µg/mL; in assay [5], greater than 32 µg/mL.
